This is an account of results in patent US20160175412A1, “PREVENTION OF TYPE 1 DIABETES BY TREG VACCINATION WITH AN INSULIN MIMETOPE” (DANA-FARBER CANCER INSTITUTE, INC., priority 2010, published 2016).

The subject of test [1] is HA(107-119) TCR transgenic Foxp3GFP-reporter T cells. Description: in vivo HA-specific Treg conversion, congenic adoptive-transfer system. Set-up: species or system mouse. Conditions: injection of mTOR-inhibitor. Here is the method: (b) In vivo conversion of naïve CD4+CD25-T cells expressing a transgenic TCR of interest into Treg cells using a congenic transfer system. HA(107-119)TCR transgenic CD4+/Foxp3-/GFP Thy1.1+ cells are transferred iv into a host such as a Balb/c thy1.2+ mouse. A to single dose of a covalent conjugate of […] fusion antibody is administered ip. Analysis of Foxp3 expression in CD4-enriched Thy1.1+ spleenocytes and lymph nodes is conducted after 14 days flow cytometrically.
For the exploitation of antigen-specific Treg induction to interfere with unwanted immunity as diabetes the inventors performed optimization studies in order to achieve stable de novo differentiation of naive T cells into Tregs in sufficient numbers. Therefore we aimed at using combinations of compounds that enhance conversion, selectively expand the generated Tregs and allow for maintenance of the Treg phenotype. […] To induce rapid expansion of these Tregs the inventors injected the mice with IL-2 mixed with an optimized amount of a particular IL-2 monoclonal antibody (IL-2/IL-2 ab complexes) for a short period of 3 days at the end of the conversion period. […] Moreover, these Tregs were stable and persisted over a period of 4 months, which is an important feature as it allows for prospective induction to suppress unwanted immune responses.

The test system of test [2] is IAg^7. Conditions: cited from earlier work.
The next test deals with BDC2.5 T cells. Particulars: cited from earlier work.
In the next test the test system is NOD mice. Description: prevention of spontaneous diabetes in NOD mice. It is filed as in vivo, mouse. Particulars: injection into young NOD mice. From the text:
The inventors have been successful in inducing HY-specific Treg from naIve T cells in wt female B6 mice that were infused with HY-peptide and visualized with HY-peptide, class II tetramers (1). However, a similar approach to prevent diabetes in NOD mice by injecting insulin B:9-23 peptide into young NOD mice failed.
(§1) The inventors performed similar protocols of antigen-specific Treg conversion studies to prevent the development of spontaneous diabetes in NOD mice by injecting DEC205 fusion antibodies that contain the beta chain of insulin. […] The inventors hypothesized that weak epitopes may fail to induce efficient Treg conversion, and we initiated studies using Insulin B:9-23 TCR transgenic mice and identified in T cell proliferation assays insulin mimetopes that stimulate better than the Insulin B:9-23 peptide itself because of an increased binding capacity to MHC class II IAg^7, compared to the aforementioned Insulin B:9-23 peptide. In fact such mimetopes achieved better conversion of naive T cells expressing the transgenic TCR. The inventors then studied the impact of these insulin-derived mimetopes in young NOD mice on diabetes development via subimmunogenic peptide delivery using either newly designed DEC205 peptide fusion antibodies (see description below) or peptide-infusing mini-osmotic pumps. […]

Test [3] concerns T cells with a specific transgenic TCR for the K^d54-68 peptide. Particulars: cited from earlier work.
A further test has as its target T1, IAu (Mus musculus, UniProt P06344+P14438).
T1 sequence (P14438 1-227): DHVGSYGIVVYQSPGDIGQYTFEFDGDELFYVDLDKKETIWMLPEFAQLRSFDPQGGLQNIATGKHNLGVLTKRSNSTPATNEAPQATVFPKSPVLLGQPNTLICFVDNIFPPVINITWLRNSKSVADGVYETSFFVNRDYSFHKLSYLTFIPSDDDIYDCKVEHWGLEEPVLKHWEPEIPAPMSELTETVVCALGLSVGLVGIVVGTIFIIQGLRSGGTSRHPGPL
T1 sequence (P06344 28-263): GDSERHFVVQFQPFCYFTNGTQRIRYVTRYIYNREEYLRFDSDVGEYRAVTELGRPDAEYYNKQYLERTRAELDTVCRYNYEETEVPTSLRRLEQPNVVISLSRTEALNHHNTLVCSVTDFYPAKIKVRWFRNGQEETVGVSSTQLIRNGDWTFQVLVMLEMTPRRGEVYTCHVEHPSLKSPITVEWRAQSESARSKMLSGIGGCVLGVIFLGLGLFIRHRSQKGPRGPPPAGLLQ
Conditions: presented by IAu; cited from earlier work.

Test [4] has as its system IAg^7. Description: peptide binding to MHC class II IAg7. Set-up: species or system mouse. Particulars: MHC class II IAg^7.
Text: The natural Insulin B:9-23 peptide is known to be associated with Type I diabetes. This peptide binds with poor affinity to IAg^7 in multiple binding registers.
Chromogranin A was recently identified as the antigenic source of the highly pathogenic BDC2.5 T cell clone associated with Type I diabetes. WE14 is naturally processed from Chromogranin A by a furin-like protease. […] Studies have shown that this epitope only partially fills the peptide binding groove.
as §1, with “TCR.” for “TCR. The inventors then studied the impact of these insulin-derived mimetopes in young NOD mice on diabetes development via subimmunogenic peptide delivery using either newly designed DEC205 peptide fusion antibodies (see description below) or peptide-infusing mini-osmotic pumps.”

The next test deals with NOD InsB:9-23 Tg T cells. Description: thymidine incorporation T cell proliferation assay. Type of test: cell-based, mouse. Conditions: Insulin B:9-23 TCR transgenic T cells. From the text: A key feature of the adaptive immune response is the ability of antigen-specific T cells to rapidly proliferate following antigenic-stimulation. Assays to assess the proliferative activity of antigen-specific T cells are a core tool to allow for evaluation of TCR- and MHC-binding properties based on the growth rate of the T cell populations after stimulation with a defined amount of antigen. A historically established assay is the detection of tritiated thymidine ^3H uptake. Therefore CD4+ T-cells from Rag def. NOD mice expressing a transgenic TCR for the a peptide of interest (e.g., Insulin B 9:23 peptide) are isolated by the use of a magnetic bead separation approach. Purified CD11^+DCs from normal NOD mice are used as antigen-presenting cells and irradiated. To induce proliferation of antigen-specific CD4^+ T cells, co-cultures are set up with naïve Insulin-specific CD4^+ T cells in 200 μl RPMI1640 medium supplemented with 10% (vol/vol) FCS in 96-well round-bottomed plates. Soluble peptides (e.g., natural InsulinB9:23 peptide) or mimetopes (e.g., Insulin mimetopes) are added to the cultures in various concentration (10 μg/ml to 0.01 μg/ml). Analysis of proliferation of antigen-specific T cells is performed by incorporation of ^3H-thymidine added for the last 12 hours of a 70 hours culture period followed by scintillation counting. […]
For orientation: Uptake of a labelled nucleoside into DNA is a usual measure of proliferation.

Where no end group is shown, it is not given here.

With `CO[C@H]1C[C@@H]2CC[C@@H](C)[C@@](O)(O2)C(=O)C(=O)N2CCCC[C@H]2C(=O)O[C@H]([C@H](C)C[C@@H]2CC[C@@H](OCCO)[C@H](OC)C2)CC(=O)[C@H](C)/C=C(\C)[C@@H](O)[C@@H](OC)C(=O)[C@H](C)C[C@H](C)/C=C/C=C/C=C/1C` [Everolimus], in test [1], the “frequency of newly generated HA-specific Foxp3+ Tregs” value was “substantially increases”.

Take “pS3 peptide: SEQ ID NO: 5, RLGLWVRME; strong stimulating mimetope of WE14 (pS3 peptide mimetope)”: the “binding to IAg^7 (MHC-binding)” value in the test on IAg^7 [2] is listed as “improved MHC-binding”. Also, in the test with BDC2.5 T cells, the “stimulation of BDC2.5 T cells” value is given as “strong stimulating mimetope”.

Take “natural Insulin B:9-23 peptide: SEQ ID NO: 1, SHLVEALYLVCGERG; natural peptide associated with Type I diabetes (Insulin B peptide)”: in the test with NOD mice, the prevention of diabetes entry is “failed”. Besides, the “binding to IAg^7 (MHC-binding)” value in the test on IAg^7 [2] is on record as “poor affinity”.

Regarding “K^d54-68 peptide: SEQ ID NO: 6, QEGPEYWEEQTQRAK; MHC class I derived processed peptide presented by IAb (Kd 54-68 peptide)”, the agonist strength result in test [3] (MHC-derived transplantation antigen) is “weak agonist”. Also, the “proliferation of specific TCR transgenic T cells” value in test [3] (dendritic cells pulsed with peptide) was “not able to stimulate the proliferation”.

With “Act-11 MBP: SEQ ID NO: 8, Ac-ASQKRPSQRHG; acetylated N-terminal myelin basic protein epitope”, in the test with IAu, the epitope strength result was “weak epitope”.

In the case of “InsMim3 peptide mimetope: SEQ ID NO: 2, VEALYLVCGEEG; insulin mimetope, p9 Arginine exchanged to Glutamic acid (InsMim3 peptide mimetope)”, the “MHC binding compared with natural Insulin B:9-23 peptide” value with IAg^7 [4] is “enhanced MHC binding”. Moreover, the “stimulation of T cells compared with natural Insulin B:9-23 peptide” value in the test with NOD InsB:9-23 Tg T cells is listed as “better stimulation of T cells”.

For the molecule “WE14: SEQ ID NO: 4, WSRMDQLAKELTAE; naturally processed from Chromogranin A (WE14 peptide)”, the “binding to IAg^7 (MHC-binding)” value in the test on IAg^7 [2] is on record as “weakly”. In addition, the “stimulation of BDC2.5 T cells” value with BDC2.5 T cells is “poor stimulation”.
